This is an account of results in patent US10196436B2, “Inhibitors of the fibroblast growth factor receptor” (BLUEPRINT MEDICINES CORPORATION, priority 2012, dated 2019).

In one assay the test system is Hep3B xenograft tumors. In words: Hep3B liver cancer cell subcutaneous xenograft model, tumor growth inhibition. The assay is classed as in vivo, Mus Musculus. As for the experimental part: […] female nude mice (Mus Musculus) age 6 to 8 weeks were used. Tumor cell culture and inoculation: Hep3B cells were cultured with EMEM medium (Invitrogen, USA) supplemented with 10% FBS (Gibco, Australia). The cells were harvested in 90% confluence, and the viability was no less than 90%. Mice were implanted subcutaneously (s.c.) with 200 μL of 10×10^6 Hep3B cells in 50% Matrigel in the right flank at the beginning of the study.
Animal grouping and dosing schedule: Ten days after cell implantation, when tumors reached an average volume of 199 mm^3, 45 mice were selected based on tumor volume and randomly assigned to 5 treatment groups (n=9). The day of randomization was denoted as Do and the treatment was started from then on.
Tumor volume and body weight measurements: Tumor size was measured twice per week in two dimensions using a caliper, and the volume was expressed in mm^3 using the formula: V=0.5 a×b^2 where a and b were the long and short diameters of the tumor, respectively. Body weight was measured at least twice weekly.

Assay [1] has as its system MDA-MB-453 cells, which harbor an activating FGFR4 mutation. Description: Cellular potency: phosphorylation of Erk in MDA-MB-453 cells (immunoblot). Particulars: Homo sapiens, MDA-MB-453, 1 h, read-out: Potency (pErk IC50). On the technique in general: In western blotting, separated proteins are transferred to a membrane and probed.
Experimental: Dose response in MDA-MB-453 cells, which harbor an activating FGFR4 mutation, was measured as follows. Briefly, MDA-MB-453 cells were seeded at 2.5×10^6 cells/6 well, and starved overnight. Compounds were added at varying concentrations (3000, 1000, 300, 100, and 30 nM) for 1 hour. Samples were collected and lysed for immunoblot analysis. The phosphorylation of Erk was measured and the average pErk value of three replicates was plotted with three parameter dose-response (inhibition) curve fit using Prism GraphPad software, which was used to determine the IC50 values.
A further assay concerns panel of kinase assays. In words: Kinase panel selectivity score from percent of DMSO control. Particulars: kinases with POC less than 10 at 3 μM divided by total distinct kinases tested.
The next assay has as its target wild type FGFR-4 (Homo sapiens (Human), UniProt P22455). In words: FGFR-4 wild type assay at Km (Caliper electrophoretic mobility shift). It is filed as biochemical. The settings on record: for IC50: read-out: FGFR4 IC50; for Ratio FGFR1/FGFR4: [IC50 for FGFR1]/[IC50 for FGFR4]. Here is the method:
(§1) In order to assess the activity of chemical compounds against the relevant kinase of interest, the Caliper LifeSciences electrophoretic mobility shift technology platform is utilized. Fluorescently labeled substrate peptide is incubated in the presence dosed levels of compounds, a set concentration of kinase and of ATP, so that a reflective proportion of the peptide is phosphorylated. At the end of the reaction, the mix of phosphorylated (product) and non-phosphorylated (substrate) peptides are passed through the microfluidic system of the Caliper LabChip® EZ Reader II, under an applied potential difference. The presence of the phosphate group on the product peptide provides a difference in mass and charge between the product peptide and the substrate peptide, resulting in a separation of the substrate and product pools in the sample. As the pools pass the LEDS within the instrument, these pools are detected and resolved as separate peaks. The ratio between these peaks therefore reflects the activity of the chemical matter at that concentration in that well, under those conditions.
The reaction was stopped by the addition of 70 ul of Stop buffer (100 mM HEPES pH 7.5, 0.015% Brij 35, 35 mM EDTA and 0.2% of Coating Reagent 3 (Caliper Lifesciences)). The plate was then read on a Caliper LabChip® EZ Reader II (protocol settings: −1.9 psi, upstream voltage −700, downstream voltage −3000, post sample sip 35 s).

For a further assay, the target named is wild type FGFR-1 (Homo sapiens (Human), UniProt P11362). Description: FGFR-1 wild type assay at Km (Caliper electrophoretic mobility shift). The assay is classed as biochemical. Particulars: 400 uM ATP, 90 minutes, 25 C; read-out: FGFR1 IC50. As for the experimental part:
as §1
The reaction was stopped by the addition of 70 ul of Stop buffer (100 mM HEPES pH 7.5, 0.015% Brij 35, 35 mM EDTA and 0.2% of Coating Reagent 3 (Caliper Lifesciences)). The plate was then read on a Caliper EZReader 2 (protocol settings: −1.9 psi, upstream voltage −700, downstream voltage −3000, post sample sip 35 s).

For a further assay, the target named is FGFR-4 (Homo sapiens (Human), UniProt P22455). In words: Crystal structure of compound bound to FGFR-4. The assay is classed as binding.
Chain of FGFR-4 (P22455 22-802): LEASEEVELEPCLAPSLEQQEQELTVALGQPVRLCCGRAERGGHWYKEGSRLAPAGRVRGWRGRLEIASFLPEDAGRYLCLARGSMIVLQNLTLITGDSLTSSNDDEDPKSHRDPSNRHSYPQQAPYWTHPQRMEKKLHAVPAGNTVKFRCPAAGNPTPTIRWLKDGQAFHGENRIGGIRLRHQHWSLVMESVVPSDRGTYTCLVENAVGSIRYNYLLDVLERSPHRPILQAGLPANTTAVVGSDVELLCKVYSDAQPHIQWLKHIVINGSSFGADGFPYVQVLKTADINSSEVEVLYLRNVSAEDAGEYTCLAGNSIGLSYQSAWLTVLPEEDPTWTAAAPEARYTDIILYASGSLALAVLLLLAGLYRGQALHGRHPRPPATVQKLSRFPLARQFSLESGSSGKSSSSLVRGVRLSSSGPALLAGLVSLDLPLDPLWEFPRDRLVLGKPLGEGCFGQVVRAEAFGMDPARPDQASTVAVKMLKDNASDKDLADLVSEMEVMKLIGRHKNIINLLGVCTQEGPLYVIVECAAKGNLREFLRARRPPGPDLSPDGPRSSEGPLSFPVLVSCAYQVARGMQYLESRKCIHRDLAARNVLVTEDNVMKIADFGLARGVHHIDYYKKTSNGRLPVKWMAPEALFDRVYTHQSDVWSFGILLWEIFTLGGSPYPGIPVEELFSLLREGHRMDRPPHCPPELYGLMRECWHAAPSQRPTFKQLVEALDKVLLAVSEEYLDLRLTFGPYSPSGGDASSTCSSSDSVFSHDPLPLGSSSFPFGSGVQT
The target of assay [2] is GST-tagged recombinant wild type FGFR-4 (Homo sapiens (Human), UniProt P22455). Description: Covalency: mass spectrometry of protein-inhibitor complex. Particulars: 300 uM compound, 75 uM FGFR-4, 3 hours room temperature then 13 hours 4° C. The assay is classed as binding. Here is the method: The protein-inhibitor complex was then desalted using Pierce detergent removal columns (Thermo Pierce). The unmodified protein and protein-inhibitor complex were analyzed by electron spray mass spectrometry to determine their respective molecular weights.
Chain of GST-tagged recombinant wild type FGFR-4 (P22455 460-802): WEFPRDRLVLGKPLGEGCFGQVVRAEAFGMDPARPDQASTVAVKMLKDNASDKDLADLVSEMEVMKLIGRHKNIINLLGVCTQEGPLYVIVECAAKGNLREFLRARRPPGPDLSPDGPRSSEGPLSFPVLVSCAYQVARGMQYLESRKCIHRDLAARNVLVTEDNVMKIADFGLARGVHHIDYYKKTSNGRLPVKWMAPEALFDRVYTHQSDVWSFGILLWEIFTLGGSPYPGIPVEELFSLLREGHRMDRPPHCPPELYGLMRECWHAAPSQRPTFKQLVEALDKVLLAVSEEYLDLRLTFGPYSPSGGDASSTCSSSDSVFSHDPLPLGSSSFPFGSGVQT

In a further assay the test system is Hep3B cells. In words: Induction of apoptosis, Caspase-Glo3/7 assay in Hep3B cells. It is filed as cell-based. The settings on record: 6 hours. As for the experimental part: Hep3B cells were seeded at 20 k/well in 96-well white plates in 200 ul of DMEM/5% FBS overnight. The next day compound was added at a final DMSO concentration of 0.1% and incubated for 6 hours. Caspase activity was measured according to manufacture instruction (Caspase-Glo3/7 Assay (Promega)). Briefly, 100 ul of Caspase-Glo3/7 reagent was added to each well and incubated for 1 hour in the dark. Luminescence was measured using EnVision.

Like-named read-outs stand apart in the source and are kept apart here. Some results are limits rather than exact numbers.

Chain of wild type FGFR-4 (P22455 22-802): as the sequence (P22455 22-802) above
Chain of wild type FGFR-1 (P11362 22-822): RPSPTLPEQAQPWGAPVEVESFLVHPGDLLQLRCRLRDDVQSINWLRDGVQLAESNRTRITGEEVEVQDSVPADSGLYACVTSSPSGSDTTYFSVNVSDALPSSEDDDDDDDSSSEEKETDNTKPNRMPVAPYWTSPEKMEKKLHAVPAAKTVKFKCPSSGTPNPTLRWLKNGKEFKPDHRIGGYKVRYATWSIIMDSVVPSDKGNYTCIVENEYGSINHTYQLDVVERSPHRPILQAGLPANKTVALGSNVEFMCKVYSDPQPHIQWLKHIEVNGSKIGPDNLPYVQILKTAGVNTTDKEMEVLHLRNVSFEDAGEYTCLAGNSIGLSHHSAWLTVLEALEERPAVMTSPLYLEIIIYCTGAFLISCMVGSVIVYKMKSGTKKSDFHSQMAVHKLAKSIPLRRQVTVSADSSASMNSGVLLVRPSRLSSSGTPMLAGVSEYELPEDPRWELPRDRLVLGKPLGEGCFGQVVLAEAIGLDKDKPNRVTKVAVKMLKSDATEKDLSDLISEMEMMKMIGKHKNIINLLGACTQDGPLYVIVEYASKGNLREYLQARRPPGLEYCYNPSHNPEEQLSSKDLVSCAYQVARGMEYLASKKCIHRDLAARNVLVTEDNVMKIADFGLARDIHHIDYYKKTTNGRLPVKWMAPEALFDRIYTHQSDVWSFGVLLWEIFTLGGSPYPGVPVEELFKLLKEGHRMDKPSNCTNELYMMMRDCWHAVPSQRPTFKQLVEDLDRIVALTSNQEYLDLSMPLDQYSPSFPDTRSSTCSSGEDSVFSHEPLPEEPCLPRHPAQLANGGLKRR

In the case of `CNC(=O)c1cc(Oc2ccc(NC(=O)Nc3ccc(Cl)c(C(F)(F)F)c3)cc2)ccn1` [Sorafenib, reference compound], the “tumor volume vs vehicle group” value in the assay on Hep3B xenograft tumors (30 mg/kg PO QD, Day 4 to Day 19, nude mice) was “Statistically significant reduction of tumor volumes”.
In general, IC50 refers to the concentration that gives 50% inhibition. In the case of `C=CC(=O)Nc1cccc(C)c1Nc1ncc2cc(-c3c(Cl)c(OC)cc(OC)c3Cl)c(=O)n(C)c2n1` [COMPOUND 43, N-(2-((6-(2,6-dichloro-3,5-dimethoxyphenyl)-8-methyl-7-oxo-7,8-dihydropyrido[2,3-d]pyrimidin-2-yl)amino)-3-methylphenyl)acrylamide], the IC50 in assay [1] is under 1 nM.
For the molecule `C=CC(=O)N(CCCCN(CC)CC)c1ncc2cc(-c3c(Cl)c(OC)cc(OC)c3Cl)c(NC(=O)NC(C)(C)C)nc2n1` [COMPOUND 55, N-(7-(3-(tert-butyl)ureido)-6-(2,6-dichloro-3,5-dimethoxyphenyl)pyrido[2,3-d]pyrimidin-2-yl)-N-(4-(diethylamino)butyl) acrylamide], in the assay with panel of kinase assays, the “selectivity score [S(10) @3 μM]” value was at most 0.030. Also, the IC50 on wild type FGFR-4 (400 uM ATP, 90 minutes, 25 C) was under 10 nM. Further, the “Ratio FGFR1/FGFR4” value at wild type FGFR-4 was “A (the ratio is >500)”.
Consider `C=CC(=O)Nc1cccc(F)c1Nc1ncc2cc(-c3c(Cl)c(OC)cc(OC)c3Cl)ccc2n1` [COMPOUND 27], for which the IC50 in assay [1] is 1 to 10 nM; on wild type FGFR-4 (400 uM ATP, 90 minutes, 25 C), under 10 nM. Besides, in the assay with panel of kinase assays, the “selectivity score [S(10) @3 μM]” value is given as at most 0.030. Also, the “Ratio FGFR1/FGFR4” value at wild type FGFR-4 was “C (the ratio is ≥100 and <200)”.
With `C=CC(=O)Nc1ccc(F)c(C)c1Nc1ncc2cc(-c3c(Cl)c(OC)cc(OC)c3Cl)ccc2n1` [COMPOUND 33], the figures for the IC50 (in assay [1]; on wild type FGFR-1) were 1 to 10 nM and over 1000 nM, respectively. The “Ratio FGFR1/FGFR4” value on wild type FGFR-4 is “F (the ratio of [IC50 for FGFR1]/[IC50 for FGFR4] is less than 10)”.
Regarding `C=CC(=O)N(CCCCN(CC)CC)c1ncc2cc(-c3cc(OC)cc(OC)c3)c(NC(=O)NC(C)(C)C)nc2n1` [COMPOUND 52, N-(7-(3-(tert-butyl)ureido)-6-(3,5-dimethoxyphenyl)pyrido[2,3-d]pyrimidin-2-yl)-N-(4-(diethylamino)butyl)acrylamide], at FGFR-4, the “residue bound in crystal structure” value is listed as “binds to the cysteine at residue 552 of FGFR-4”. On wild type FGFR-4 (400 uM ATP, 90 minutes, 25 C), the IC50 is under 10 nM. The “Ratio FGFR1/FGFR4” value at wild type FGFR-4 was “C (the ratio is ≥100 and <200)”. Moreover, in assay [2], the “mass difference between protein-inhibitor complex and unmodified protein” value was 575.1252 daltons.
For `C=CC(=O)Nc1ccccc1Nc1cc2c(cn1)cc(-c1c(Cl)c(OC)cc(OC)c1Cl)c(=O)n2C` [COMPOUND 31], the IC50 in assay [1] is under 1 nM; at wild type FGFR-4 (400 uM ATP, 90 minutes, 25 C) it was under 10 nM. Besides, at wild type FGFR-4, the “Ratio FGFR1/FGFR4” value is “B (the ratio is ≥200 and <500)”.
On to `C=CC(=O)Nc1cc(N2CCOCC2)cc(C)c1Nc1ncc2cc(-c3c(Cl)c(OC)cc(OC)c3Cl)ccc2n1` [COMPOUND 53], for which the IC50 in assay [1] is 1 to 10 nM; at wild type FGFR-4 (400 uM ATP, 90 minutes, 25 C), under 10 nM. Further, the “Ratio FGFR1/FGFR4” value on wild type FGFR-4 was “C (the ratio is ≥100 and <200)”.
Take `C=CC(=O)Nc1cccc(C)c1Nc1ncc2cc(-c3c(Cl)c(OC)cc(OC)c3Cl)cc(OC)c2n1` [COMPOUND 41]: the IC50 is 1 to 10 nM in assay [1] and under 10 nM on wild type FGFR-4 (400 uM ATP, 90 minutes, 25 C). In addition, in the assay with panel of kinase assays, the “selectivity score [S(10) @3 μM]” value is at most 0.030. Also, the “Ratio FGFR1/FGFR4” value on wild type FGFR-4 was “A (the ratio is >500)”.
For the molecule `C=CC(=O)Nc1cccc(C)c1Nc1cc2c(cn1)cc(-c1cc(OC)cc(OC)c1)c(=O)n2C` [COMPOUND 18], the values for the IC50 (in assay [1]; on wild type FGFR-1) were 10 to 100 nM and over 1000 nM, respectively.
With `C=CC(=O)Nc1cccc(C)c1Nc1cc2c(cn1)cc(-c1c(Cl)c(OC)cc(OC)c1Cl)c(=O)n2C` [COMPOUND 39], the IC50 is under 1 nM in assay [1]; under 10 nM at wild type FGFR-4 (400 uM ATP, 90 minutes, 25 C); over 1000 nM at wild type FGFR-1. On wild type FGFR-4, the “Ratio FGFR1/FGFR4” value was “E (the ratio is >10 and <50)”.
For `C=CC(=O)Nc1ccccc1-c1ccn2c(-c3cc(NC(=O)NCC(F)(F)F)cc(OC(C)C)c3)cnc2c1` [COMPOUND 38, N-(2-(3-(3-isopropoxy-5-(3-(2,2,2-trifluoroethyl)ureido)phenyl)imidazo[1,2-a]pyridin-7-yl)phenyl)acrylamide], the IC50 in assay [1] was in the range of 10 to 100 nM. Further, on wild type FGFR-4, the “Ratio FGFR1/FGFR4” value is “E (the ratio is >10 and <50)”.
For `C=CC(=O)Nc1cccc(F)c1Nc1cc2c(cn1)cc(-c1c(Cl)c(OC)cc(OC)c1Cl)c(=O)n2C` [COMPOUND 46], the IC50 in assay [1] is under 1 nM; at wild type FGFR-4 (400 uM ATP, 90 minutes, 25 C), under 10 nM. At wild type FGFR-4, the “Ratio FGFR1/FGFR4” value is “E (the ratio is >10 and <50)”.
In the case of `C=CC(=O)Nc1cccc(C)c1Nc1ncc2nc(-c3c(Cl)c(OC)cc(OC)c3Cl)c(=O)n(C)c2n1` [COMPOUND 45, N-(2-((6-(2,6-dichloro-3,5-dimethoxyphenyl)-8-methyl-7-oxo-7,8-dihydropteridin-2-yl)amino)-3-methylphenyl)acrylamide], the half-maximal inhibitory concentration (IC50) was under 1 nM in assay [1]; under 10 nM at wild type FGFR-4 (400 uM ATP, 90 minutes, 25 C); over 1000 nM on wild type FGFR-1. The “Ratio FGFR1/FGFR4” value at wild type FGFR-4 is “E (the ratio is >10 and <50)”.
For the molecule `COc1cc(CCc2cc(NC(=O)c3ccc(N4CC(C)NC(C)C4)cc3)n[nH]2)cc(OC)c1` (centres unmarked) [BGJ398, reference compound], in the assay on Hep3B cells, the “induction of apoptosis (caspase activity)” value is “induction of apoptosis, although at a higher concentration”. In the assay with Hep3B xenograft tumors (20 mg/kg PO QD, entire study, nude mice), the “tumor volume vs vehicle group” value is “significant difference in tumor volume between BGJ398 (20 mg/kg PO QD) and vehicle groups was not observed”.
Turning to `C=CC(=O)Nc1cccc(C)c1Nc1ncc2cc(-c3c(Cl)c(OC)cc(OC)c3Cl)cc(F)c2n1` [COMPOUND 34, N-(2-((6-(2,6-dichloro-3,5-dimethoxyphenyl)-8-fluoroquinazolin-2-yl)amino)-3-methylphenyl)acrylamide], the IC50 in assay [1] was 1 to 10 nM; at wild type FGFR-4 it was under 10 nM.
Regarding `C=CC(=O)Nc1cccc(C)c1Nc1ncc2cc(-c3c(Cl)c(OC)cc(OC)c3Cl)cnc2n1` [COMPOUND 26, N-(2-((6-(2,6-dichloro-3,5-dimethoxyphenyl)pyrido[2,3-d]pyrimidin-2-yl)amino)-3-methylphenyl)acrylamide], the IC50 is 1 to 10 nM in assay [1] and under 10 nM at wild type FGFR-4 (400 uM ATP, 90 minutes, 25 C). Moreover, at wild type FGFR-4, the “Ratio FGFR1/FGFR4” value is given as “A (the ratio is >500)”.
On to `C#CC(=O)NCc1cccn2c(-c3cc(NC(=O)NCC(F)(F)F)cc(OC(C)C)c3)cnc12` [COMPOUND 20, N-((3-(3-isopropoxy-5-(3-(2,2,2-trifluoroethyl)ureido)phenyl)imidazo[1,2-a]pyridin-8-yl)methyl)propiolamide], for which the results for the IC50 (in assay [1]; at wild type FGFR-1) were over 100 nM and over 1000 nM, respectively.
